Test results from patent publication US9352013B2, “Uses of bremelanotide in therapy for female sexual dysfunction” (Palatin Technologies, Inc., priority 2012, dated 2016).
Marks after values point to notes of the source that are not given here.

Assays:
[1] = Example 1: ambulatory blood pressure monitoring; assay type: in vivo, human; details: for DBP: treatment group difference (from placebo) in mean change from single-blind placebo / SBP: treatment group difference (from placebo) in mean change from single-blind placebo: in mmHg (unit assumed); for HR-BP Product: treatment group difference (from placebo) in mean change from single-blind placebo: in mmHg·bpm (unit assumed); for Pulse: treatment group difference (from placebo) in mean change from single-blind placebo: in bpm (unit assumed)
Description: Ambulatory blood pressure monitoring was conducted following both placebo and randomized treatment group in-clinic administrations. Three periods of ambulatory blood pressure monitoring were included, the first period was from before to 24 hours after a single, in-clinic dose of placebo (to establish a baseline); the second and third periods occurred from before to 24 hours after each of 2 single, in-clinic doses of double-blind treatment, administered within 14 days of each other. Blood samples for pharmacokinetic analysis were collected before and at 0.5, 1.0, and 2.0 hours after each in-clinic bremelanotide single-dose treatment (double-blind only), to permit analysis of concentration-response relationships.
Mean changes in blood pressure were characterized in all subjects based on sequential supervised dosing of single-blind subcutaneous placebo and two doses of randomized study drug. The primary analysis for mean changes was the difference between treatment groups in the change from single-blind placebo to randomized drug (Visit 2 vs. Visits 5/7). There were between 86 to 100 subjects in each dose group.
Although there were an increased number of outliers for maximal changes from baseline in systolic blood pressure in drug-treated patients, the duration of these events was quite limited. The interrogation interval during ambulatory blood pressure monitoring assessments of 15 minutes allowed definition of the maximal duration of such excursions. […] The clinical significance of such changes, if any, is small.

[2] = Pharmacokinetics of subcutaneous administration in healthy adult males; assay type: in vivo; details: male, human, plasma, sc, read-out: Median Tmax
Description: Results of Tmax values were compared between subcutaneous administration (SC) and intranasal (IN) administration of various doses of bremelanotide, as shown in FIG. 1.

[3] = Single SC doses in male subjects with ED and preexisting hypertension: tolerability; assay type: in vivo, human; details: single subcutaneous doses of 4 and 6 mg
[4] = tested on: women diagnosed with sexual arousal disorder; details: single intranasal dose of 20 mg; cited from earlier work
[5] = tested on: men diagnosed with erectile dysfunction; details: subcutaneous injection of either a 4 or 6 mg dose; cited from earlier work
[6] = 1.25 mg SC, interval 8-24 h, V5
[7] = 1.25 mg SC, interval 8-24 h, V7
[8] = 1.75 mg SC, interval 0-24 h, V5
[9] = 1.75 mg SC, interval 0-24 h, V7
[10] = 1.75 mg SC, interval 8-24 h, V5
[11] = 1.75 mg SC, interval 8-24 h, V7

Q: Which results are given for `CCCC[C@H](NC(C)=O)C(=O)N[C@H]1CC(=O)NCCCC[C@@H](C(=O)O)NC(=O)[C@H](Cc2c[nH]c3ccccc23)NC(=O)[C@H](CCCNC(=N)N)NC(=O)[C@@H](Cc2ccccc2)NC(=O)[C@H](Cc2c[nH]cn2)NC1=O` [bremelanotide, Ac-Nle-cyclo(-Asp-His-D-Phe-Arg-Trp-Lys)-OH]?
A: DBP: treatment group difference (from placebo) in mean change from single-blind placebo ([1]; 1.25 mg SC, interval 4-8 h, V5): 2.2*; SBP: treatment group difference (from placebo) in mean change from single-blind placebo ([1]; 1.25 mg SC, interval 4-8 h, V5): 1.4; HR-BP Product: treatment group difference (from placebo) in mean change from single-blind placebo ([1]; 1.25 mg SC, interval 4-8 h, V5): −621.0*; Pulse: treatment group difference (from placebo) in mean change from single-blind placebo ([1]; 1.25 mg SC, interval 4-8 h, V7): −6.5*; DBP: treatment group difference (from placebo) in mean change from single-blind placebo ([1]; 1.25 mg SC, interval 4-8 h, V7): 0.9; SBP: treatment group difference (from placebo) in mean change from single-blind placebo ([1]; 1.25 mg SC, interval 4-8 h, V7): 1.3*; HR-BP Product: treatment group difference (from placebo) in mean change from single-blind placebo ([1]; 1.25 mg SC, interval 4-8 h, V7): −669.7*; Pulse: treatment group difference (from placebo) in mean change from single-blind placebo [1, 6]: −1.5; DBP: treatment group difference (from placebo) in mean change from single-blind placebo [1, 6]: 1.4*; SBP: treatment group difference (from placebo) in mean change from single-blind placebo [1, 6]: 0.7; HR-BP Product: treatment group difference (from placebo) in mean change from single-blind placebo [1, 6]: −127.4; Pulse: treatment group difference (from placebo) in mean change from single-blind placebo [1, 7]: −0.7; DBP: treatment group difference (from placebo) in mean change from single-blind placebo [1, 7]: 1.7*; SBP: treatment group difference (from placebo) in mean change from single-blind placebo [1, 7]: 1.5*; HR-BP Product: treatment group difference (from placebo) in mean change from single-blind placebo [1, 7]: 4.2; Systolic blood pressure shifts: ΔSBP >10 mmHg, Duration >30 minutes ([1]; 1.75 mg SC): 0; Systolic blood pressure shifts: ΔSBP >15 mmHg, Duration >30 minutes ([1]; 1.75 mg SC): 0; Pulse: treatment group difference (from placebo) in mean change from single-blind placebo ([1]; 1.75 mg SC, interval 0-4 h, V5): −4.6*; DBP: treatment group difference (from placebo) in mean change from single-blind placebo ([1]; 1.75 mg SC, interval 0-4 h, V5): 3.2*; SBP: treatment group difference (from placebo) in mean change from single-blind placebo ([1]; 1.75 mg SC, interval 0-4 h, V5): 3.1*; HR-BP Product: treatment group difference (from placebo) in mean change from single-blind placebo ([1]; 1.75 mg SC, interval 0-4 h, V5): −305.9; Pulse: treatment group difference (from placebo) in mean change from single-blind placebo ([1]; 1.75 mg SC, interval 0-4 h, V7): −4.7*; DBP: treatment group difference (from placebo) in mean change from single-blind placebo ([1]; 1.75 mg SC, interval 0-4 h, V7): 2.6*; SBP: treatment group difference (from placebo) in mean change from single-blind placebo ([1]; 1.75 mg SC, interval 0-4 h, V7): 2.5*; HR-BP Product: treatment group difference (from placebo) in mean change from single-blind placebo ([1]; 1.75 mg SC, interval 0-4 h, V7): −375.4*; Pulse: treatment group difference (from placebo) in mean change from single-blind placebo [1, 8]: −2.2*; DBP: treatment group difference (from placebo) in mean change from single-blind placebo [1, 8]: 1.9*; SBP: treatment group difference (from placebo) in mean change from single-blind placebo [1, 8]: 1.6; HR-BP Product: treatment group difference (from placebo) in mean change from single-blind placebo [1, 8]: −139.1; Pulse: treatment group difference (from placebo) in mean change from single-blind placebo [1, 9]: −2.2*; DBP: treatment group difference (from placebo) in mean change from single-blind placebo [1, 9]: 1.8*; SBP: treatment group difference (from placebo) in mean change from single-blind placebo [1, 9]: 1.3; HR-BP Product: treatment group difference (from placebo) in mean change from single-blind placebo [1, 9]: −184.1; Pulse: treatment group difference (from placebo) in mean change from single-blind placebo ([1]; 1.75 mg SC, interval 4-8 h, V5): −6.6*; DBP: treatment group difference (from placebo) in mean change from single-blind placebo ([1]; 1.75 mg SC, interval 4-8 h, V5): 2.3*; SBP: treatment group difference (from placebo) in mean change from single-blind placebo ([1]; 1.75 mg SC, interval 4-8 h, V5): 2.1; HR-BP Product: treatment group difference (from placebo) in mean change from single-blind placebo ([1]; 1.75 mg SC, interval 4-8 h, V5): −608.1*; Pulse: treatment group difference (from placebo) in mean change from single-blind placebo ([1]; 1.75 mg SC, interval 4-8 h, V7): −6.6*; DBP: treatment group difference (from placebo) in mean change from single-blind placebo ([1]; 1.75 mg SC, interval 4-8 h, V7): 2.2*; SBP: treatment group difference (from placebo) in mean change from single-blind placebo ([1]; 1.75 mg SC, interval 4-8 h, V7): 2.2; HR-BP Product: treatment group difference (from placebo) in mean change from single-blind placebo ([1]; 1.75 mg SC, interval 4-8 h, V7): −624.5*; Pulse: treatment group difference (from placebo) in mean change from single-blind placebo [1, 10]: −0.8; DBP: treatment group difference (from placebo) in mean change from single-blind placebo [1, 10]: 1.4*; SBP: treatment group difference (from placebo) in mean change from single-blind placebo [1, 10]: 0.9; HR-BP Product: treatment group difference (from placebo) in mean change from single-blind placebo [1, 10]: −23.7; Pulse: treatment group difference (from placebo) in mean change from single-blind placebo [1, 11]: −0.5; DBP: treatment group difference (from placebo) in mean change from single-blind placebo [1, 11]: 1.4; SBP: treatment group difference (from placebo) in mean change from single-blind placebo [1, 11]: 0.6; HR-BP Product: treatment group difference (from placebo) in mean change from single-blind placebo [1, 11]: −31.3; Tmax [2]: 30 to 60 min; Tolerability [3]: improved tolerability; Vaginal pulse amplitude measures compared to placebo [4]: without statistically relevant differences; Erectile response compared to placebo [5]: statistically significant erectile response
